Results taken from US4505929A, “Sulfur-substituted diphenyl ethers having antiviral activity” (The Dow Chemical Company, priority 1982, dated 1985).
In brackets after ≈: the same amount, converted by molar mass. Like-named read-outs stand apart in the source and are kept apart here.

Key:
Assay type in all cases: cell-based
rhinovirus type 2 (RV-2) = assay: Tissue culture antiviral test (HeLa cells), RV-2; details: Enterovirus, 48 and 72 hours post-treatment, read-out: Lowest concentration necessary to cause a 50 percent reduction in cytopathic effect, RV-2
Protocol: (§1) Monolayered HeLa cells in 16 millimeter (mm) tissue culture dishes were treated with 1 ml of culture medium (Eagles medium supplemented with fetal calf serum) containing subject compound at an appropriate concentration or containing no compound at all. Culture media such as those described herein are more fully described in standard texts, as for example, Kuchler's Biochemical Methods in Cell Culture and Virology, Dowden, Hutchinson and Ross, Inc., Stroudsberg, PA (1977). Following treatment, cells were challenged with 0.05 ml of rhinovirus type 1A (RV-1A), rhinovirus type 2 (RV-2) or Coxsackie A21 virus (Cox A21) in culture medium. Some of the compounds were also tested against rhinovirus type 5 (RV-5), rhinovirus type 8 (RV-8) or rhinovirus type 64 (RV-64). Cell controls received no viruses.
(§2) ^xx Lowest concentration of the compound (μg/ml) necessary to caus
(§3) a 50 percent reduction in cytopathic effect.

[1] = system: rhinovirus type 1A (RV-1A); assay: Tissue culture antiviral test (HeLa cells), RV-1A; details: Enterovirus, 48 and 72 hours post-treatment, read-out: Lowest concentration necessary to cause a 50 percent reduction in cytopathic effect, RV-1A
Protocol: as §1, §2, §3

[2] = system: rhinovirus type 64 (RV-64); assay: Tissue culture antiviral test (HeLa cells), RV-64; details: Enterovirus, 48 and 72 hours post-treatment, read-out: Lowest concentration necessary to cause a 50 percent reduction in cytopathic effect, RV-64
Protocol: as §1, §2, §3

[3] = Cytotoxicity to HeLa cells in tissue culture testing; details: human
Protocol: as §1
^x Cytotoxicity figures represent the concentration of the compound,
micrograms/milliliter (μg/ml) found to be toxic to the cell.
means "approximately "; "<<" "considerably less than " and "G.I." means

rhinovirus type 5 (RV-5) = assay: Tissue culture antiviral test (HeLa cells), RV-5; details: Enterovirus, 48 and 72 hours post-treatment, read-out: Lowest concentration necessary to cause a 50 percent reduction in cytopathic effect, RV-5
Protocol: as §1, §2, §3

[4] = system: Coxsackie A21 virus (Cox A21); assay: Tissue culture antiviral test (HeLa cells), Cox A21; details: 48 and 72 hours post-treatment, read-out: Lowest concentration necessary to cause a 50 percent reduction in cytopathic effect, Cox A21
Protocol: as §1, §2, §3

rhinovirus type 8 (RV-8) = assay: Tissue culture antiviral test (HeLa cells), RV-8; details: Enterovirus, 48 and 72 hours post-treatment, read-out: Lowest concentration necessary to cause a 50 percent reduction in cytopathic effect, RV-8
Protocol: as §1, §2, §3

[5] = concentration found to be toxic to the cell, observed at 48 and 72 hours, read-out: Cytotoxicity
[6] = G.I. = growth inhibition: at the concentration shown the compound inhibited growth of the tissue culture, read-out: Cytotoxicity (G.I.)

Compound | EC50 (rhinovirus type 2 (RV-2)) | EC50 [1] | EC50 [2] | MCC [3, 5] | EC50 (rhinovirus type 5 (RV-5)) | EC50 [4] | EC50 (rhinovirus type 8 (RV-8)) | MCC [3, 6]
Cc1cc(Oc2ccc(Cl)c(Cl)c2)ccc1S(C)(=O)=O [Example 19, 4-(3-Methyl-4-(methylsulfonyl)phenoxy)-1,2-dichlorobenzene] | 6.25 µg/mL (≈ 18.9 µM) | < 3.12 µg/mL | < 3.12 µg/mL | > 50 µg/mL | 12.5 µg/mL (≈ 37.7 µM) |  |  | 
CS(=O)(=O)c1ccc(Oc2ccc(Cl)c(Cl)c2)c([N+](=O)[O-])c1 [Example 15, 4-(4-(Methylsulfonyl)-2-nitrophenoxy)-1,2-dichlorobenzene] | 6.25 µg/mL (≈ 17.3 µM) |  |  | > 100 µg/mL |  |  |  | 
COc1ccc(Oc2ccc(S(C)(=O)=O)cc2)cc1 [Example 18, 4-(4-(Methylsulfonyl)phenoxy)-1-methoxybenzene] | 12.5 µg/mL (≈ 44.9 µM) | 6.25 µg/mL (≈ 22.5 µM) | 12.5 µg/mL (≈ 44.9 µM) | > 50 µg/mL |  | 25 µg/mL (≈ 89.8 µM) |  | 
C[S+]([O-])c1ccc(Oc2ccc([N+](=O)[O-])cc2)cc1 (stereo not drawn) [Example 29, 1-(Methylsulfinyl)-4-(4-nitrophenoxy)benzene] | ≤ 6.25 µg/mL | ≤ 6.25 µg/mL |  | 25 µg/mL |  | < 6.25 µg/mL |  | 
CN(C)S(=O)(=O)c1ccc(Oc2ccc(S(=O)(=O)c3ccccc3)cc2)cc1 [Example 11, N,N-Dimethyl-4-(4-(phenylsulfonyl)phenoxy)benzenesulfonamide] | 0.625 µg/mL (≈ 1.5 µM) | 0.625 µg/mL (≈ 1.5 µM) |  | 1.25 µg/mL |  | 0.625 µg/mL (≈ 1.5 µM) |  | 
CS(=O)(=O)c1ccc(Oc2ccc(C(=O)c3ccccc3)cc2)cc1 [Example 4, (4-(4-(Methylsulfonyl)phenoxy)phenyl)phenylmethanone] | 50 µg/mL (≈ 142 µM) |  | 100 µg/mL (≈ 284 µM) | > 100 µg/mL |  | < 6.25 µg/mL |  | 
C[S+]([O-])c1ccc(Oc2ccc(Cl)c(Cl)c2)cc1 (stereo not drawn) [Example 6, 1,2-Dichloro-4-(4-(methylsulfinyl)phenoxy)benzene] | < 0.31 µg/mL | < 0.31 µg/mL | < 0.31 µg/mL | 12.5 µg/mL |  |  |  | 
CSc1ccc(Oc2ccc(C#N)cc2)cc1 [Example 5, 4-(4-(Methylthio)phenoxy)benzonitrile] | < 3.12 µg/mL | < 3.12 µg/mL |  | 6.25 µg/mL |  | < 3.12 µg/mL |  | 
CSc1ccc(Oc2ccc([N+](=O)[O-])cc2)cc1 [Example 27, 1-(Methylthio)-4-(4-nitrophenoxy)benzene] | ≤ 6.25 µg/mL | 6.25 µg/mL (≈ 23.9 µM) |  | 12.5 µg/mL |  | ≤ 6.25 µg/mL |  | 
CS(=O)(=O)c1ccc(Oc2ccc(C#N)cc2)cc1 [Example 8, 4-(4-(Methylsulfonyl)phenoxy)benzonitrile] | 12.5 µg/mL (≈ 45.7 µM) | 12.5 µg/mL (≈ 45.7 µM) | 12.5 µg/mL (≈ 45.7 µM) | 50 µg/mL | 12.5 µg/mL (≈ 45.7 µM) | < 6.25 µg/mL | 25 µg/mL (≈ 91.5 µM) | 
CCN(CC)S(=O)(=O)c1ccc(Oc2ccc(S(=O)(=O)C(F)(F)F)cc2)cc1 [Example 26, N,N-Diethyl-4-(4-((trifluoromethyl)sulfonyl)phenoxy)benzenesulfonamide] | 0.3 µg/mL (≈ 0.686 µM) | 0.312 µg/mL (≈ 0.714 µM) | 0.625 µg/mL (≈ 1.43 µM) | 0.625 µg/mL | 0.625 µg/mL (≈ 1.43 µM) | ≤ 0.3 µg/mL | ≤ 0.312 µg/mL | 
CS(=O)(=O)c1ccc(Oc2ccc(OCC#N)cc2)cc1 [Example 23, (4-(4-(Methylsulfonyl)phenoxy)phenoxy)acetonitrile] | 5 µg/mL (≈ 16.5 µM) | 2.5 µg/mL (≈ 8.24 µM) | 10 µg/mL (≈ 33 µM) | 10 µg/mL | 5 µg/mL (≈ 16.5 µM) | 2.5 µg/mL (≈ 8.24 µM) | 5 µg/mL (≈ 16.5 µM) | 
CCN(CC)S(=O)(=O)c1ccc(Oc2ccc(S(C)(=O)=O)cc2)cc1 [Example 13, N,N-Diethyl-4-(4-(methylsulfonyl)phenoxy)benzenesulfonamide] |  | 50 µg/mL (≈ 130 µM) |  |  |  | 25 µg/mL (≈ 65.2 µM) |  | 100 µg/mL
CS(=O)(=O)c1ccc(Oc2ccc(Cl)c(Cl)c2)c(Cl)c1 [Example 14, 4-(2-Chloro-4-(methylsulfonyl)phenoxy)-1,2-dichlorobenzene] | ≤ 6.25 µg/mL | 12.5 µg/mL (≈ 35.5 µM) |  | 50 µg/mL |  | 12.5 µg/mL (≈ 35.5 µM) |  | 
CS(=O)(=O)c1ccc(Oc2ccc(Cc3ccccc3)cc2)cc1 [Example 20, 1-(4-(Methylsulfonyl)phenoxy)-4-(phenylmethyl)benzene] | 1.25 µg/mL (≈ 3.69 µM) | 2.5 µg/mL (≈ 7.39 µM) | 2.5 µg/mL (≈ 7.39 µM) | 5 µg/mL | 5 µg/mL (≈ 14.8 µM) | 2.5 µg/mL (≈ 7.39 µM) | 5 µg/mL (≈ 14.8 µM) | 
C[S+]([O-])c1ccc(Oc2ccc(C#N)cc2)cc1 (stereo not drawn) [Example 7, 4-(4-(Methylsulfinyl)phenoxy)benzonitrile] | 3.12 µg/mL (≈ 12.1 µM) | 3.12 µg/mL (≈ 12.1 µM) |  | 25 µg/mL |  | 3.12 µg/mL (≈ 12.1 µM) |  | 

Compound | EC50 (rhinovirus type 2 (RV-2)) | EC50 [1] | EC50 [2] | MCC [3, 5] | EC50 (rhinovirus type 5 (RV-5)) | EC50 [4] | EC50 (rhinovirus type 8 (RV-8)) | MCC [3, 6]
CS(=O)(=O)c1ccc(Oc2ccc([N+](=O)[O-])cc2[N+](=O)[O-])cc1 [Example 31, 1-(4-(Methylsulfonyl)phenoxy)-2,4-dinitrobenzene] | ~12.5 µg/mL (≈ 36.9 µM) | ~12.5 µg/mL (≈ 36.9 µM) |  | 25 µg/mL |  | ≤ 6.25 µg/mL |  | 
O=S(=O)(c1ccccc1)c1ccc(Oc2ccc(Cl)c(Cl)c2)cc1 [Example 10, 4-(4-(Phenylsulfonyl)phenoxy)-1,2-dichlorobenzene] | 6.25 µg/mL (≈ 16.5 µM) |  |  | 50 µg/mL |  | 6.25 µg/mL (≈ 16.5 µM) |  | 
CS(=O)(=O)c1ccc(Oc2ccc(Cl)c(Cl)c2)c(N)c1 [Example 16, 2-(3,4-Dichlorophenoxy)-5-(methylsulfonyl)benzenamine] | 6.25 µg/mL (≈ 18.8 µM) | < 6.25 µg/mL |  | ≤ 6.25 µg/mL |  | 6.25 µg/mL (≈ 18.8 µM) |  | 
C[S+]([O-])c1ccc(Oc2ccc([N+](=O)[O-])cc2[N+](=O)[O-])cc1 (stereo not drawn) [Example 30, 1-(4-(Methylsulfinyl)phenoxy)-2,4-dinitrobenzene] | ~6.25 µg/mL (≈ 19.4 µM) |  |  | 12.5 µg/mL |  | 6.25 µg/mL (≈ 19.4 µM) |  | 
CS(=O)(=O)c1ccc(Oc2ccc(OC(F)(F)C(Cl)Cl)cc2)cc1 [Example 22, 1-(2,2-Dichloro-1,1-difluoroethoxy)-4-(4-(methylsulfonyl)phenoxy)benzene] | 1.25 µg/mL (≈ 3.15 µM) | 2.5 µg/mL (≈ 6.29 µM) |  | 2.5 µg/mL | ~1.25 µg/mL (≈ 3.15 µM) | 0.625 µg/mL (≈ 1.57 µM) |  | 
CS(=O)(=O)c1ccc(Oc2ccc(O)cc2)cc1 [Example 21, 4-(4-(Methylsulfonyl)phenoxy)phenol] | ~25 µg/mL (≈ 94.6 µM) | ~25 µg/mL (≈ 94.6 µM) |  | 25 µg/mL |  |  |  | 
CS(=O)(=O)c1ccc(Oc2ccc(Cl)c(Cl)c2)c(C#N)c1 [Example 17, 2-(3,4-Dichlorophenoxy)-5-(methylsulfonyl)benzonitrile] | 25 µg/mL (≈ 73.1 µM) | 12.5 µg/mL (≈ 36.5 µM) |  | > 100 µg/mL |  | 12.5 µg/mL (≈ 36.5 µM) |  | 
O=S(=O)(c1ccc(Oc2ccc(Cl)c(Cl)c2)cc1)C(F)(F)F [Example 25, 4-(4-((Trifluoromethyl)sulfonyl)phenoxy)-1,2-dichlorobenzene] | 6.25 µg/mL (≈ 16.8 µM) | 12.5 µg/mL (≈ 33.7 µM) |  | > 50 µg/mL |  | < 3.12 µg/mL |  | 
CCN(CC)CCOc1ccc(Oc2ccc(S(C)(=O)=O)cc2)cc1 [Example 24] |  | 1.25 µg/mL (≈ 3.44 µM) |  | ≤ 20 µg/mL | 2.5 µg/mL (≈ 6.88 µM) |  |  | 
CS(=O)(=O)c1ccc(Oc2ccc(Br)cc2)cc1 [Example 9, 1-Bromo-4-(4-(methylsulfonyl)phenoxy)benzene] | < 3.12 µg/mL | < 3.12 µg/mL |  | 12.5 µg/mL | 12.5 µg/mL (≈ 38.2 µM) | < 3.12 µg/mL | 12.5 µg/mL (≈ 38.2 µM) | 
CS(=O)(=O)c1ccc(Oc2ccc(Cl)cc2)cc1 [Example 2, 4-(4-(Methylsulfonyl)phenoxy)-1-chlorobenzene] | 1.25 µg/mL (≈ 4.42 µM) | 1.25 µg/mL (≈ 4.42 µM) |  |  |  | 0.625 µg/mL (≈ 2.21 µM) |  | 10 µg/mL
CSc1ccc(Oc2ccc([N+](=O)[O-])cc2[N+](=O)[O-])cc1 [Example 28, 1-(4-(Methylthio)phenoxy)-2,4-dinitrobenzene] | < 6.25 µg/mL | ≤ 6.25 µg/mL |  |  |  | ≤ 6.25 µg/mL |  | 50 to 100 µg/mL
CS(=O)(=O)c1ccc(Oc2ccc([N+](=O)[O-])cc2)cc1 [Example 32, 1-(Methylsulfonyl)-4-(4-nitrophenoxy)benzene] | ≤ 6.25 µg/mL | 12.5 µg/mL (≈ 42.6 µM) |  | 50 µg/mL |  | < 6.25 µg/mL |  | 
CN(C)S(=O)(=O)c1ccc(Oc2ccc(S(C)(=O)=O)cc2)cc1 [Example 12, N,N-Dimethyl-4-(4-(methylsulfonyl)phenoxy)benzenesulfonamide] |  |  |  |  |  | 50 µg/mL (≈ 141 µM) |  | 100 µg/mL
CC(=O)c1ccc(Oc2ccc(S(C)(=O)=O)cc2)cc1 [Example 3, 1-(4-(4-(Methylsulfonyl)phenoxy)phenyl)ethanone] | 12.5 µg/mL (≈ 43.1 µM) | 25 µg/mL (≈ 86.1 µM) | < 6.25 µg/mL | 50 µg/mL | 25 µg/mL (≈ 86.1 µM) | < 6.25 µg/mL | 25 µg/mL (≈ 86.1 µM) | 
